Laboratory results published in patent publication US10858335B2 (Rigel Pharmaceuticals, Inc., priority 2014, dated 2020).

test system: GDF8 signaling (p-SMAD-3 (Ser423/425)); assay: AlphaScreen SureFire SMAD3 (p-Ser423/425) assay, GDF8-stimulated cells (GDF pSMAD); type: cell-based; conditions: MPC11; GDF8-stimulated; p-SMAD3 AlphaScreen; read-out: GDF pSMAD (MPC11) (inhibition of GDF8 signaling)

Row | IC50 | SMILES
1 | 137 nM | Nc1ncnc2ccc(-c3cccnc3-c3ccc(F)c(Cl)c3)cc12 [compound 448, 6-(2-(3-Chloro-4-fluorophenyl)pyridin-3-yl)quinazolin-4-amine]

same assay, conditions: Mus musculus, MPC-11, MPC11; GDF8-stimulated; p-SMAD3 AlphaScreen; read-out: GDF pSMAD (MPC11) (inhibition of GDF8 signaling)

Row | SMILES | IC50
2 | Cc1cc(-c2ncccc2-c2ccc3ncnc(NCc4cccnc4)c3c2)ccc1F [compound 416, 6-(2-(4-Fluoro-3-methylphenyl)pyridin-3-yl)-N-(pyridin-3-ylmethyl)quinazolin-4-amine] | 4860 nM
3 | Cc1cc(-c2ncccc2-c2ccc3ncnc(NCCCN(C)C)c3c2)ccc1F [compound 423, N1-(6-(2-(4-Fluoro-3-methylphenyl)pyridin-3-yl)quinazolin-4-yl)-N3,N3-dimethylpropane-1,3-diamine] | 628 nM
4 | Cc1cc(-c2ncccc2-c2ccc3ncnc(NCCCN4CCOCC4)c3c2)ccc1F [compound 424, 6-(2-(4-Fluoro-3-methylphenyl)pyridin-3-yl)-N-(3-morpholinopropyl)quinazolin-4-amine] | 2430 nM
5 | Cc1cc(-c2ncccc2-c2ccc3ncnc(OCCN4CCN(C)CC4)c3c2)ccc1F [compound 433, 6-(2-(4-Fluoro-3-methylphenyl)pyridin-3-yl)-4-(2-(4-methylpiperazin-1-yl)ethoxy)quinazoline] | 285 nM
6 | Cc1cc(-c2ncccc2-c2ccc3ncnc(OCCCN4CCN(C)CC4)c3c2)ccc1F [compound 434, 6-(2-(4-Fluoro-3-methylphenyl)pyridin-3-yl)-4-(3-(4-methylpiperazin-1-yl)propoxy)quinazoline] | 1490 nM
7 | Cc1ccc(Oc2ncnc3ccc(-c4cccnc4-c4ccc(F)c(Cl)c4)cc23)cn1 [compound 437, 6-(2-(3-Chloro-4-fluorophenyl)pyridin-3-yl)-4-((6-methylpyridin-3-yl)oxy)quinazoline] | 739 nM
8 | CN(C)CCOc1ncnc2ccc(-c3cccnc3-c3ccc(F)c(Cl)c3)cc12 [compound 439, 2-((6-(2-(3-Chloro-4-fluorophenyl)pyridin-3-yl)quinazolin-4-yl)oxy)-N,N-dimethylethan-1-amine] | 738 nM
9 | Cc1cc(-c2ncccc2-c2ccc3ncnc(Oc4cccc(C#N)c4)c3c2)ccc1F [compound 441, 3-((6-(2-(4-Fluoro-3-methylphenyl)pyridin-3-yl)quinazolin-4-yl)oxy)benzonitrile] | 1160 nM
10 | Cc1cc(-c2ncccc2-c2ccc3ncnc(Oc4cccnc4)c3c2)ccc1F [compound 442, 6-(2-(4-Fluoro-3-methylphenyl)pyridin-3-yl)-4-(pyridin-3-yloxy)quinazoline] | 366 nM
11 | Cc1cc(-c2ncccc2-c2ccc3ncnc(OCCN4CCCC4)c3c2)ccc1F [compound 443, 6-(2-(4-Fluoro-3-methylphenyl)pyridin-3-yl)-4-(2-(pyrrolidin-1-yl)ethoxy)quinazoline] | 429 nM
12 | Cc1cc(-c2ncccc2-c2ccc3ncnc(Oc4cccc(N5CCOCC5)c4)c3c2)ccc1F [compound 444, 4-(3-((6-(2-(4-Fluoro-3-methylphenyl)pyridin-3-yl)quinazolin-4-yl)oxy)phenyl)morpholine] | 1080 nM
13 | Cc1cc(-c2ncccc2-c2ccc3ncnc(OCCc4scnc4C)c3c2)ccc1F [compound 445, 5-(2-((6-(2-(4-Fluoro-3-methylphenyl)pyridin-3-yl)quinazolin-4-yl)oxy)ethyl)-4-methylthiazole] | 515 nM
14 | Nc1ncnc2ccc(-c3cccnc3-c3cc(Cl)ccc3F)cc12 [compound 449, 6-(2-(5-Chloro-2-fluorophenyl)pyridin-3-yl)quinazolin-4-amine] | 68.6 nM
15 | Nc1ncnc2ccc(-c3cccnc3-c3cccc(F)c3)cc12 [compound 461, 6-(2-(3-Fluorophenyl)pyridin-3-yl)quinazolin-4-amine] | 551 nM
16 | Cc1ccccc1-c1ncccc1-c1ccc2ncnc(N)c2c1 [compound 462, 6-(2-(o-Tolyl)pyridin-3-yl)quinazolin-4-amine] | 18400 nM
17 | Cc1ccc(Cl)cc1-c1ncccc1-c1ccc2ncnc(N)c2c1 [compound 463, 6-(2-(5-Chloro-2-methylphenyl)pyridin-3-yl)quinazolin-4-amine] | 297 nM
18 | Cc1c(Cl)cccc1-c1ncccc1-c1ccc2ncnc(N)c2c1 [compound 464, 6-(2-(3-Chloro-2-methylphenyl)pyridin-3-yl)quinazolin-4-amine] | 3960 nM
19 | Cc1ccc(F)cc1-c1ncccc1-c1ccc2ncnc(N)c2c1 [compound 466, 6-(2-(5-Fluoro-2-methylphenyl)pyridin-3-yl)quinazolin-4-amine] | 7580 nM
20 | Cc1c(F)cccc1-c1ncccc1-c1ccc2ncnc(N)c2c1 [compound 468, 6-(2-(3-Fluoro-2-methylphenyl)pyridin-3-yl)quinazolin-4-amine] | 7820 nM

Next, values leading:

Row | IC50 | SMILES
21 | 11800 nM | Cc1cc(-c2ncccc2-c2ccc3ncnc(NCc4ccncc4)c3c2)ccc1F [compound 415, 6-(2-(4-Fluoro-3-methylphenyl)pyridin-3-yl)-N-(pyridin-4-ylmethyl)quinazolin-4-amine]
22 | 1400 nM | Cc1cc(-c2ncccc2-c2ccc3ncnc(NCC4CCN(C)CC4)c3c2)ccc1F [compound 421, 6-(2-(4-Fluoro-3-methylphenyl)pyridin-3-yl)-N-((1-methylpiperidin-4-yl)methyl)quinazolin-4-amine]
23 | 1280 nM | Cc1cc(-c2ncccc2-c2ccc3ncnc(NCCC4CCN(C)CC4)c3c2)ccc1F [compound 422, 6-(2-(4-Fluoro-3-methylphenyl)pyridin-3-yl)-N-(2-(1-methylpiperidin-4-yl)ethyl)quinazolin-4-amine]
24 | 384 nM | Cc1cc(-c2ncccc2-c2ccc3ncnc(OCCCN(C)C)c3c2)ccc1F [compound 429, 3-((6-(2-(4-Fluoro-3-methylphenyl)pyridin-3-yl)quinazolin-4-yl)oxy)-N,N-dimethylpropan-1-amine]
25 | 475 nM | Cc1cc(-c2ncccc2-c2ccc3ncnc(OCC#N)c3c2)ccc1F [compound 430, 2-((6-(2-(4-Fluoro-3-methylphenyl)pyridin-3-yl)quinazolin-4-yl)oxy)acetonitrile]
26 | 374 nM | Cc1cc(-c2ncccc2-c2ccc3ncnc(OCCCN4CCCC4=O)c3c2)ccc1F [compound 431, 1-(3-((6-(2-(4-Fluoro-3-methylphenyl)pyridin-3-yl)quinazolin-4-yl)oxy)propyl)pyrrolidin-2-one]
27 | 513 nM | Cc1ccc(Oc2ncnc3ccc(-c4cccnc4-c4ccc(F)c(C)c4)cc23)cn1 [compound 432, 6-(2-(4-Fluoro-3-methylphenyl)pyridin-3-yl)-4-((6-methylpyridin-3-yl)oxy)quinazoline]
28 | 608 nM | CN(C)CCCOc1ncnc2ccc(-c3cccnc3-c3ccc(F)c(Cl)c3)cc12 [compound 435, 3-((6-(2-(3-Chloro-4-fluorophenyl)pyridin-3-yl)quinazolin-4-yl)oxy)-N,N-dimethylpropan-1-amine]
29 | 1180 nM | O=C1CCCN1CCCOc1ncnc2ccc(-c3cccnc3-c3ccc(F)c(Cl)c3)cc12 [compound 436, 1-(3-((6-(2-(3-Chloro-4-fluorophenyl)pyridin-3-yl)quinazolin-4-yl)oxy)propyl)pyrrolidin-2-one]
30 | 959 nM | CCN(CC)CCOc1ncnc2ccc(-c3cccnc3-c3ccc(F)c(Cl)c3)cc12 [compound 438, 2-((6-(2-(3-Chloro-4-fluorophenyl)pyridin-3-yl)quinazolin-4-yl)oxy)-N,N-diethylethan-1-amine]
31 | 1860 nM | Cc1cc(-c2ncccc2-c2ccc3ncnc(Oc4ccc(C#N)cc4)c3c2)ccc1F [compound 440, 4-((6-(2-(4-Fluoro-3-methylphenyl)pyridin-3-yl)quinazolin-4-yl)oxy)benzonitrile]
32 | 398 nM | Cc1cc(-c2ncccc2-c2ccc3ncnc(Oc4ccc5ncccc5c4)c3c2)ccc1F [compound 446, 6-(2-(4-Fluoro-3-methylphenyl)pyridin-3-yl)-4-(quinolin-6-yloxy)quinazoline]
33 | 753 nM | Cc1cc(-c2ncccc2-c2ccc3ncnc(OC4CCN(c5ccncc5)CC4)c3c2)ccc1F [compound 447, 6-(2-(4-Fluoro-3-methylphenyl)pyridin-3-yl)-4-((1-(pyridin-4-yl)piperidin-4-yl)oxy)quinazoline]
34 | 136 nM | Nc1ncnc2ccc(-c3cccnc3-c3cc(Cl)c(F)cc3F)cc12 [compound 450, 6-(2-(5-Chloro-2,4-difluorophenyl)pyridin-3-yl)quinazolin-4-amine]
35 | 115 nM | COc1cccc(-c2ncccc2-c2ccc3ncnc(N)c3c2)c1 [compound 451, 6-(2-(3-Methoxyphenyl)pyridin-3-yl)quinazolin-4-amine]
36 | 223 nM | Nc1ncnc2ccc(-c3cccnc3-c3cccc(OC(F)(F)F)c3)cc12 [compound 452, 6-(2-(3-(Trifluoromethoxy)phenyl)pyridin-3-yl)quinazolin-4-amine]
37 | 816 nM | Nc1ncnc2ccc(-c3cccnc3-c3ccc(F)c(F)c3)cc12 [compound 453, 6-(2-(3,4-Difluorophenyl)pyridin-3-yl)quinazolin-4-amine]
38 | 926 nM | Nc1ncnc2ccc(-c3cccnc3-c3cc(F)ccc3F)cc12 [compound 454, 6-(2-(2,5-Difluorophenyl)pyridin-3-yl)quinazolin-4-amine]
39 | 1160 nM | Nc1ncnc2ccc(-c3cccnc3-c3ccc(F)cc3F)cc12 [compound 455, 6-(2-(2,4-Difluorophenyl)pyridin-3-yl)quinazolin-4-amine]
40 | 299 nM | Nc1ncnc2ccc(-c3cccnc3-c3cccc(O)c3)cc12 [compound 456, 3-(3-(4-Aminoquinazolin-6-yl)pyridin-2-yl)phenol]
41 | 11500 nM | Cc1ccc(-c2ncccc2-c2ccc3ncnc(N)c3c2)cc1F [compound 459, 6-(2-(3-Fluoro-4-methylphenyl)pyridin-3-yl)quinazolin-4-amine]
42 | 129 nM | Nc1ncnc2ccc(-c3cccnc3-c3cc(F)cc(Cl)c3)cc12 [compound 460, 6-(2-(3-Chloro-5-fluorophenyl)pyridin-3-yl)quinazolin-4-amine]
43 | 12200 nM | Cc1cc(F)ccc1-c1ncccc1-c1ccc2ncnc(N)c2c1 [compound 467, 6-(2-(4-Fluoro-2-methylphenyl)pyridin-3-yl)quinazolin-4-amine]
